The text below walks through data of patent US11026877B2, “Cosmetic compositions for bleaching the skin” (Henkel AG & Co. KGaA, priority 2014, dated 2021).

Common to all, as to type: cell-based, human
Set-up in all cases: key: + stands for increased expression; − for reduced expression; 0 for no change
Holding throughout (conditions): topical, 24 hours, 30 μL, in water with 3% by weight PEG-40 Hydrogenated Castor Oil; in comparison with the blank control

The test system of one assay is ckit. Briefly: Gene expression by quantitative real-time PCR in reconstructed melanocyte models type VI (Skinethic): ckit. As to the method: (§1) The effect of licorice extract (oil-soluble) and ascorbyl tetraisopalmitate on the expression of melanogenesis-relevant genes was studied in reconstructed melanocyte models type VI from the company Skinethic. In this case, human keratinocytes were cultured together with type VI melanocytes, so that a very dark skin model forms. Together the cells form a three-dimensional epithelial tissue. Three models each were treated topically for 24 hours with 30 μL of the test formulations. In this case, the formulation is first applied to the model and then carefully distributed with a brush. Incubation then occurs at 37° C. with 5% CO2. Untreated models and models treated with a blank control (3% PEG-40 Hydrogenated Castor Oil in water) were run concurrently as the control. The gene expressions of the melanocyte-specific markers were studied using quantitative real-time PCR. […] In the subsequent PCR reaction, which is carried out with the aid of gene-specific primers for the particular markers and is used for the amplification of the target gene segments, the formation of the PCR products is detected online via a fluorescence signal. The fluorescence signal in this case is proportional to the amount of the formed PCR product. The greater the expression of a specific gene, the greater the amount of the formed PCR product and the greater the fluorescence signal. […]
For orientation: Real-time PCR tracks product formation cycle by cycle.

The test system of the next assay is gp100. Description: Gene expression by quantitative real-time PCR in reconstructed melanocyte models type VI (Skinethic): gp100. As to the method: as §1
In the next assay the test system is TRP1. Briefly: Gene expression by quantitative real-time PCR in reconstructed melanocyte models type VI (Skinethic): TRP1. As to the method: as §1
A further assay has as its system TRP2. Briefly: Gene expression by quantitative real-time PCR in reconstructed melanocyte models type VI (Skinethic): TRP2. As to the method:
as §1

In a further assay the test system is Tyrosinase. Briefly: Gene expression by quantitative real-time PCR in reconstructed melanocyte models type VI (Skinethic): Tyr. As to the method: as §1

Turning to `CCCCCCCCC(CCCCCC)C(=O)OC[C@H](OC(=O)C(CCCCCC)CCCCCCCC)[C@H]1OC(=O)C(OC(=O)C(CCCCCC)CCCCCCCC)=C1OC(=O)C(CCCCCC)CCCCCCCC` (some centres unmarked) [0.05% Vitamin tetraisopalmitate, ascorbyl tetraisopalmitate], in the assay with ckit, the ckit gene expression came out at 0. For the same compound, the Gp100 gene expression result with gp100 is “−”. Moreover, the TRP1 gene expression entry in the assay with TRP1 was “−”. In the assay on TRP2, the TRP2 gene expression result was “+”. In addition, the Tyr gene expression result with Tyrosinase is recorded as “+”.
